Reference: the NIST ThermoML archive (doi:10.1021/je0604232)

Test: molar heat capacity at constant pressure; xn = mol fraction of the nth substance listed
Details: 101 kPa, Liquid

CNCCO [2-(methylamino)ethanol] + O
molar heat capacity at constant pressure [J/K/mol]
Details	x1 = 0.1	x1 = 0.1998	x1 = 0.3003	x1 = 0.399	x1 = 0.5002	x1 = 0.6061	x1 = 0.6987	x1 = 0.8003	x1 = 0.9004	x1 = 1
303.15 K	96	108	119	129	139	151	160	172	182	194
308.15 K	98	111	122	132	143	155	165	176	187	199
313.15 K	99	113	124	135	146	157	167	178	189	200
318.15 K	100	114	126	137	148	160	170	180	190	202
323.15 K	101	116	128	139	150	162	172	183	192	203
328.15 K	103	118	131	142	153	165	175	185	195	205
333.15 K	105	121	134	145	157	168	178	188	197	206
338.15 K	107	124	138	149	161	172	182	191	199	207
343.15 K	110	127	141	153	164	176	185	194	201	208
348.15 K	114	132	146	158	169	181	190	198	205	210
353.15 K	119	138	152	163	174	186	195	203	208	212

NCCCO [3-amino-1-propanol] + O
molar heat capacity at constant pressure [J/K/mol]
Details	x1 = 0.0999	x1 = 0.2001	x1 = 0.3003	x1 = 0.4015	x1 = 0.4996	x1 = 0.6006	x1 = 0.7003	x1 = 0.8003	x1 = 0.8966	x1 = 1
303.15 K	94	108	120	131	143	155	168	180	193	204
308.15 K	96	111	123	135	147	159	171	184	196	207
313.15 K	97	112	124	136	148	160	172	185	197	208
318.15 K	98	113	126	138	150	162	173	186	198	208
323.15 K	99	115	128	140	152	163	175	187	199	209
328.15 K	101	117	130	142	154	166	177	189	200	210
333.15 K	103	119	132	145	157	169	179	191	202	211
338.15 K	106	122	135	148	160	172	182	193	204	213
343.15 K	110	126	139	151	163	175	185	196	206	214
348.15 K	114	130	143	155	167	179	188	198	208	216
353.15 K	119	135	147	160	172	183	192	201	210	217
